Measurements reported in patent US8765785B2, “Solifenacin salts” (Crystal Pharma, S.A.U., priority 2010, dated 2014).
Read-outs that look alike come from different tables or passages of the source.

What was measured:
Type in all cases: physicochemical
[1] = Stability of the solid salt on standing (colour, UV-HPLC method 2)
Method: HPLC Method 2: To Follow the End Points of the Reactions Performed and the Rest of the Impurities:
(§1) 10 g of solifenacin succinate (example 2) were dissolved in 15 mL of water. The solution was frozen by nitrogen liquid and was placed in the freeze-drying equipment at −60° C. under vacuum.

[2] = Stability of tablets of solifenacin salts over 0, 3 and 6 months (Example 9); details: for DESCRIPTION: film-coated tablets (Example 8); for course of the amount of F1 impurity: 6 month period
Method: To test the stability of solifenacin fumarate, tablets are prepared by wet granulation following the procedure disclosed in US 2008/039516, the contents of which are incorporated in their entirety. A specific example of preparing a tablet containing solifenacin fumarate is given in […] below.
25 parts by weight of Hypromellose (Pharmacoat 603) are dissolved and agitated in 130 parts of purified water with an air motor stirrer (IMA) to prepare a binder solution (at a concentration of 20.0% (w/v)). Then, 50 parts of solifenacin salt, 389 parts of lactose monohydrate (Granulac) and 128 parts of corn starch (C*PharmGel 03406) are mixed together (pre-mix) in a single pot granulator (IMA Zanchetta 3 L capacity).
The binder solution is sprayed over the pre-mix at room temperature with a flow rate of 60 ml/min, impeller speed of 300 rpm and chopper speed of 1500 rpm for wet granulation. After spraying, kneading takes place for 3 min with impeller speed of 300 rpm. After granulation, the granules are dried at a charged temperature of the jacket bowl of 80° C. under vacuum conditions, tilting movement of the bowl of 90° and intermittent speed (120 rpm) of the impeller for 120 seconds.
The granules are dried until a final moisture of 2.5%-1.0% has been reached. 6 parts of magnesium stearate are added to the dried granules for blending with a biconic mixer (SAR Labortecnic). Thereafter, the resulting mixture is compressed with a rotary tabletting machine (KILIAN IMA Pressima) with 6.0 mm punches at a compression pressure sufficient to achieve a hardness of the tablet of more than 50 N and a tablet weight of 60 mg.
The resulting tablets are coated in a non perforated pan (IMA, type HT25). Coating is performed with a solution prepared by dissolving 20 parts of Opadry II pink (Colorcon) in 200 parts of purified water using an air motor stirrer (IMA). Coating is achieved at a charge air temperature of 60-80° C., a pan rotation velocity of 6-13 rpm, and coating fluid feed rate of 16-40 ml/min for a 3.3% ratio of the component to the tablet weight, to obtain the film-coated tablet.
The stability of tablets formulated with solifenacin succinate and solifenacin fumarate, respectively, was tested in a side-by-side comparison. […] For both salts the amount of solifenacin was assayed by HPLC at 0, 3 and 6 months and the amount of “F1 impurity” was also measured. The results are provided in the tables below and are illustrated in FIGS. 9 and 10.

[3] = Conversion of the crystalline salt to the amorphous form (lyophilization, vacuum evaporation; PXRD, DSC); details: for solid form after lyophilization of an aqueous solution: freeze-drying, -60° C. under vacuum, 15 hours, PXRD and DSC
Method: as §1
10 g of solifenacin fumarate (example 1) were dissolved in 600 ml of water at 60° C. The solution was frozen by nitrogen liquid and was placed in the freeze-drying equipment at −60° C. under vacuum.
5 g of solifenacin fumarate (example 1) was dissolved in 50 ml of methanol (1% of water) and evaporated under vacuum at 50° C.

Solubility in water = assay: Solubility in water
Method: Therefore, when the procedure to obtain tablets comprising solifenacin fumarate is carried out by wet granulation, the presence of water is not such an important factor.
However, the low solubility of the solifenacin fumarate avoids this problem. The difference in solubility also makes it easier to obtain solid pharmaceutical compositions of solifenacin fumarate since the drying phase is reduced.

Row | Compound | DESCRIPTION ([2]; 3 MONTHS) | DESCRIPTION ([2]; 6 MONTHS) | DESCRIPTION ([2]; INITIAL) | ASSAY AMOUNT (amount of solifenacin by HPLC) ([2]; tablets, 3 MONTHS) [%] | CHROMATOGRAPHIC IMPURITY (F1 impurity) ([2]; tablets, 3 MONTHS) [%] | HARDNESS ([2]; tablets, 3 MONTHS) [N] | LOSS ON DRYING ([2]; tablets, 3 MONTHS) [%] | MEDIUM WEIGHT ([2]; tablets, 3 MONTHS) [mg] | ASSAY AMOUNT (amount of solifenacin by HPLC) ([2]; tablets, 6 MONTHS) [%] | CHROMATOGRAPHIC IMPURITY (F1 impurity) ([2]; tablets, 6 MONTHS) [%] | HARDNESS ([2]; tablets, 6 MONTHS) [N] | LOSS ON DRYING ([2]; tablets, 6 MONTHS) [%] | MEDIUM WEIGHT ([2]; tablets, 6 MONTHS) [mg] | course of the amount of F1 impurity ([2]; tablets) | ASSAY AMOUNT (amount of solifenacin by HPLC) ([2]; tablets, INITIAL) [%] | CHROMATOGRAPHIC IMPURITY (F1 impurity) ([2]; tablets, INITIAL) [%] | HARDNESS ([2]; tablets, INITIAL) [N] | LOSS ON DRYING ([2]; tablets, INITIAL) [%] | MEDIUM WEIGHT ([2]; tablets, INITIAL) [mg] | solid form after lyophilization of an aqueous solution [3] | also measured
1 | O=C(O[C@H]1CN2CCC1CC2)N1CCc2ccccc2[C@@H]1c1ccccc1 [amorphous form of solifenacin succinate, solifenacin succinate] |  |  |  |  |  |  |  |  |  |  |  |  |  |  |  |  |  |  |  |  | amount of new impurity with relative retention time 0.93 ([1]; left to stand for ten days, HPLC method 2): 0.14%; time until the white solid turned colored ([1]; solid on standing): 2 to 3 days; colour change of the white solid ([1]; three days after freeze-drying): turned brown-colored
2 | O=C(O[C@H]1CN2CCC1CC2)N1CCc2ccccc2[C@@H]1c1ccccc1 [solifenacin succinate] | pink biconvex | pink biconvex | pink biconvex | 96.8 | <0.06 | 98 | 2.43 | 124.80 | 94.7 | 0.91 | 102 | 2.39 | 126.26 | increases in the 6 month period | 98.7 | <0.05 | 98 | 2.40 | 125.57 | quite easy to obtain the desired amorphous form | colouring / instability on standing [1]: do not have this problem; solubility (Solubility in water): 727 mg/mL
3 | solifenacin fumarate | pink biconvex | pink biconvex | pink biconvex | 99.4 | <0.05 | 73 | 2.01 | 124.21 | 99.6 | <0.05 | 66 | 2.24 | 125.51 | remains at the constant low level | 98.2 | <0.05 | 75 | 2.05 | 124.54 | crystalline form | stability in tablets, conclusion in words ([2]; tablets, 6 month side-by-side comparison): much more stable than the succinate salt; colouring / instability on standing ([1]; crystalline forms): do not have this problem; solid form after lyophilization of an aqueous solution ([3]; listed as fumarate salt): remains crystalline; solid form after evaporation under vacuum ([3]; methanol (1% of water), evaporated under vacuum at 50° C.): crystalline form; solubility in water (Solubility in water): 11.25 mg/mL
